The values below come from patent publication US6586460B1, “Heteroarotinoids containing urea or thiourea linker” (The Board of Regents for Oklahoma State University, priority 2001, dated 2003).

The subject of data set [1] is CAOV-3. Briefly: Growth inhibition assay (SRB). Type of data set: cell-based. Conditions: Homo sapiens, Caov-3, 72 h, 3 days of treatment, read-out: Percentage of growth inhibition, CAOV−3. The text has this: (§1) To illustrate the general and useful biological activity of the heteroarotinoids described in this invention, selected compounds were screened for ability to inhibit the growth of three ovarian cancerous cell lines, namely Caov, SKOV, and OVCAR cell lines, three cervical cell lines (Cervix HPV-Wt p53, Cervix HPV-Mut p53, and Cervix HPV-Mut p53), and one vulvar (Vulvar HPV-Mut p53) cell line as shown in Tables I-III. The cell lines and the technology have been previously described [See Journal of Medicinal Chemistry, 1999, Vol. 42, pages 3602-3614 in an article entitled “Synthesis, Structure-Activity Relationships, and RAR γ-Ligand Interactions of Nitrogen Heteroarotinoids” by A. Dhar, S. Liu, J. Klucik, K. D. Berlin, M. M. Madler, S. Lu, R. T. Ivey, D. Zacheis, C. W. Brown, E. C. Nelson, P. J. Birckbichler, and D. M. Benbrook], but the general technique was slightly modified. Cultures of the cancerous cells were plated in volumes of 150 μL in 96-well microtiter plates at concentrations of 2000-4000 cells/well, depending upon the cell line used. Retinoids were added the next day at 4× the concentrations in 50 μL of media resulting in 1, 2, 3, 4, 5, 7, and 10 μM final concentrations of each retinoid. Control cultures were treated with the same volume of DMSO. After 3 days of treatment, the cell density in each well was determined by fixing the cells in trichloroacetic acid followed by staining the cytoplasmic proteins with sulforhoamine B (SRB). After rinsing, the SRB was solubilized in Tris-HCl, and the optical density of each culture was determined with a MR600 microtiter plate reader. Each experiment was performed in triplicate, and the three values of each treatment were averaged. The average OD of the treated cultures was divided by that of the control cultures treated with solvent alone. To determine the percent growth inhibition, this ratio was subtracted from 1 and multiplied by 100. Tables I, II, and III contain representative examples of the inhibition of growth by the inventive heteroarotinoids of the cancerous cell lines investigated at two independent concentrations (1 and 10 μM). As standards for comparison purposes, trans-retinoic acid (t-RA), 9-cis-retinoic acid (9-c-RA), 13-cis-retinoic acid (13-c-RA), and […] (4-HPR) were added in parallel experiments along with the heteroarotinoids and with dimethyl sulfoxide (DMSO) as the solvent. For convenience, the data in Tables II and III are duplicated and ranked according to tumor type.

Data set [2] concerns SK-OV-3. Briefly: Growth inhibition assay (SRB). Type of data set: cell-based. The settings on record: Homo sapiens, SK-OV-3, 72 h, 3 days of treatment, read-out: Percentage of growth inhibition, SKOV−3.
Description: as §1

For data set [3], the system named is OVCAR-3. As to the kind of experiment: Growth inhibition assay (SRB). Type of data set: cell-based, human. The settings on record: 3 days of treatment.
Description: as §1

Broadly, the inhibition is the relative decrease from the control value, in per cent. The melting point is the temperature of the solid-liquid transition. Consider `COc1cc2c(cc1NC(=S)Nc1ccc([N+](=O)[O-])cc1)C(C)(C)OCC2(C)C` [heteroarotinoid 31, [(6-Methoxy-1,1,4,4-tetramethylisochroman-7-yl)amino][(4-nitrophenyl)amino]methane 1-Thione], for which the melting point was 178 to 179 °C. Also, the inhibition at 1 µM in data set [1] (1 μM, Table II) was found to be 6.88%. The inhibition at 10 µM in data set [1] (10 μM, Table III) was found to be 30.8%. Also, in data set [2] (1 μM, Table II), the inhibition at 1 µM is -1.42%. Moreover, the inhibition at 10 µM in data set [2] (10 μM, Table III) is 27.4%. The “Percentage of growth inhibition, OVCAR−3” value in data set [3] (1 μM, Table II) came to 3.88%. Also, the inhibition at 1 µM in data set [3] (Homo sapiens, OVCAR-3, 72 h, 1 μM, Table II, read-out: Percentage of growth inhibition, OVCAR−3) stood at 3.83%. Besides, the inhibition at 10 µM in data set [3] (Homo sapiens, OVCAR-3, 72 h, 10 μM, Table III, read-out: Percentage of growth inhibition, OVCAR−3) amounted to 80.6%.
